The values that follow come from patent US20260092060A1, “IS[…] ANALOGS OF 2-BROMO-LSD, LSD, ALD-52, AND 1P-LSD” (priority 2021, published 2026).

The series can be described thus: in vitro. The settings on record: for differences in half-life and intrinsic clearance compared to 2-Br-LSD: human liver microsomes, significant = 15% or more increase in half-life, CLint ratio >1.15 or <0.85; for CLint / T1/2: pooled liver microsomes 0.5 mg/mL protein, test compound 1 μM, NADPH 1 mM, 37° C., 0-45 min, LC-MS/MS; for half-life / microsomal CLint: pH 7.4. How it is done: Test compound (1 μM) was incubated with pooled liver microsomes.
Pooled liver microsomes were purchased from a reputable commercial supplier. Microsomes were stored at −80° C. prior to use.
A minus cofactor control incubation was included for each compound tested where 0.1 M phosphate buffer pH 7.4 was added instead of NADPH (minus NADPH). Two control compounds were included with each species. All incubations were performed singularly for each test compound.
The reactions were stopped by transferring incubate into acetonitrile at the appropriate time points, in a 1:3 ratio. The termination plates were centrifuged at 3,000 rpm for 20 min at 4° C. to precipitate the protein.
Following protein precipitation, the sample supernatants were combined in cassettes of up to 4 compounds, internal standard was added and samples analyzed using generic LCMS/MS conditions.
From a plot of ln peak area ratio (compound peak area/internal standard peak area) against time, the gradient of the line was determined. Subsequently, half-life and intrinsic clearance were calculated using the equations below: […]
Relevant control compounds were assessed, ensuring intrinsic clearance values fell within the specified limits (if available). Any failures were rejected and the assay repeated. The intrinsic clearance (CLint) of the test compound and t ½ were returned.
On the technique in general: Liver microsomes are vesicles of endoplasmic reticulum, rich in cytochrome P450 enzymes.

SMILES strings stand for the structures. Where a name gives a salt, the structure may show the parent alone.

With `[2H]c1c([2H])c2c3c(c(Br)[nH]c3c1[2H])C[C@@H]1C2=C[C@@H](C(=O)N(CC)CC)CN1C` [Compound 1, (6aR,9R)-5-Bromo-N,N-diethyl-7-methyl-4,6,6a,7,8,9-hexahydroindolo[4,3-fg]quinoline-9-carboxamide-1,2,3-d3 formate], the “differences in half-life and intrinsic clearance compared to 2-Br-LSD” value is on record as “differences”; the CLint was 52.6 μL/min/mg protein; the T1/2 amounted to 0.438 h.
Take `[2H]C([2H])([2H])N1C[C@H](C(=O)N(CC)CC)C=C2c3cccc4[nH]c(Br)c(c34)C[C@H]21` [Compound 2, (6aR,9R)-5-bromo-N,N-diethyl-7-(methyl-d3)-4,6,6a,7,8,9-hexahydroindolo[4,3-fg]quinoline-9-carboxamide]: the “differences in half-life and intrinsic clearance compared to 2-Br-LSD” value is given as “differences”; the CLint was 49.4 μL/min/mg protein; the T1/2 stood at 0.468 h.
Turning to `CCN(CC)C(=O)[C@@H]1C=C2c3cccc4[nH]c(Br)c(c34)C[C@H]2N(C)C1` [Compound 2-Br-LSD, 2-Bromolysergic acid diethylamide, reference compound], the CLint amounted to 56.3 μL/min/mg protein and the T1/2 came to 0.41 h.
Regarding `[2H]C([2H])([2H])C([2H])([2H])N(C(=O)[C@@H]1C=C2c3cccc4[nH]c(Br)c(c34)C[C@H]2N(C)C1)C([2H])([2H])C([2H])([2H])[2H]` [Compound 7, (6aR,9R)-5-bromo-N,N-bis(ethyl-d5)-7-methyl-4,6,6a,7,8,9-hexahydroindolo[4,3-fg]quinoline-9-carboxamide], the CLint came to 44.6 μL/min/mg protein and the T1/2 was 0.518 h.
With `[2H]C([2H])([2H])N1C[C@H](C(=O)N(C([2H])([2H])C([2H])([2H])[2H])C([2H])([2H])C([2H])([2H])[2H])C=C2c3cccc4[nH]c(Br)c(c34)C[C@H]21` [Compound 9, (6aR,9R)-5-bromo-N,N-bis(ethyl-d5)-7-(methyl-d3)-4,6,6a,7,8,9-hexahydroindolo[4,3-fg]quinoline-9-carboxamide trifluoroacetate-d], the CLint came out at 38.8 μL/min/mg protein and the T1/2 is 0.595 h.
On the same counts, the results for `[2H]c1[nH]c2cccc3c2c1C[C@@H]1C3=C[C@@H](C(=O)N(CC)CC)CN1C` [Compound 41, (6aR,9R)-N,N-diethyl-7-methyl-4,6,6a,7,8,9-hexahydroindolo[4,3-fg]quinoline-9-carboxamide-4,5-d trifluoroacetate-d] are 17.8 μL/min/mg protein and 1.3 h.
For `[2H]c1[nH]c2c([2H])c([2H])c([2H])c3c2c1C[C@@H]1C3=C[C@@H](C(=O)N(CC)CC)CN1C` [Compound 45, (6aR,9R)-N,N-diethyl-7-methyl-4,6,6a,7,8,9-hexahydroindolo[4,3-fg]quinoline-9-carboxamide-1,2,3,5-d4 triflate-d], the CLint is reported as 16.7 μL/min/mg protein and the T1/2 was 1.38 h.
The matching figures for `[2H]C([2H])([2H])C([2H])([2H])N(C(=O)[C@@H]1C=C2c3cccc4[nH]cc(c34)C[C@H]2N(C)C1)C([2H])([2H])C([2H])([2H])[2H]` [Compound 47, (6aR,9R)-N,N-Bis(ethyl-d5)-7-methyl-4,6,6a,7,8,9-hexahydroindolo[4,3-fg]quinoline-9-carboxamide]: 17.2 μL/min/mg protein and 1.35 h.
Where the note is “human, microsomes”, `[2H]C([2H])([2H])N1C[C@H](C(=O)N(C([2H])([2H])C([2H])([2H])[2H])C([2H])([2H])C([2H])([2H])[2H])C=C2c3cccc4[nH]cc(c34)C[C@H]21` [Compound 50, (6aR,9R)-N,N-bis(ethyl-d5)-7-(methyl-d3)-4,6,6a,7,8,9-hexahydroindolo[4,3-fg]quinoline-9-carboxamide trifluoroacetate-d] came in with a half-life of 1.61 h and an intrinsic clearance (microsomal CLint) of 14.3 µL/min/mg.
The matching figures for `[2H]c1[nH]c2cccc3c2c1C[C@@H]1C3=C[C@@H](C(=O)N(C([2H])([2H])C([2H])([2H])[2H])C([2H])([2H])C([2H])([2H])[2H])CN1C` [Compound 55, (6aR,9R)-N,N-Bis(ethyl-d5)-7-methyl-4,6,6a,7,8,9-hexahydroindolo[4,3-fg]quinoline-9-carboxamide-5-d trifluoroacetate-d]: 1.39 h and 16.6 µL/min/mg.
With `[2H]c1[nH]c2c([2H])c([2H])c([2H])c3c2c1C[C@@H]1C3=C[C@@H](C(=O)N(C([2H])([2H])C([2H])([2H])[2H])C([2H])([2H])C([2H])([2H])[2H])CN1C` [Compound 67, (6aR,9R)-N,N-Bis(ethyl-d5)-7-methyl-4,6,6a,7,8,9-hexahydroindolo[4,3-fg]quinoline-9-carboxamide-1,2,3,5-d4 triflate-d], where the note is “human, microsomes”, the “differences in half-life and intrinsic clearance compared to LSD” value is “significant differences”; the half-life was determined as 2 h; the intrinsic metabolic clearance (microsomal CLint) amounted to 11.5 µL/min/mg.
As to `CCN(CC)C(=O)[C@@H]1C=C2c3cccc4[nH]cc(c34)C[C@H]2N(C)C1` [LSD, Lysergic acid diethylamide, reference compound], for the setting “human, microsomes”, the half-life came to 1.42 h and the intrinsic metabolic clearance (microsomal CLint) was determined as 16.3 µL/min/mg.
Take `COc1ccc2c(c1)[C@]13CCCC[C@@H]1[C@H](C2)N(C)CC3` [dextromethorphan, reference compound]: the intrinsic metabolic clearance (microsomal CLint) (human, microsomes) was determined as 46.8 µL/min/mg.

Usually half-life stands for the time needed for the level to fall by half in the phase considered. Low values mean rapid decline, high ones slow decline. As a reminder, the microsomal CLint is the rate of metabolic loss divided by the concentration. A high value points to faster metabolism.
